{"source": "patent US10905691B2", "about": "“Use of triazolo(4,5-d)pyrimidine derivatives for prevention and treatment of bacterial infection” (Universite de Liege, priority 2016, dated 2021)", "key": {"[1]": {"tested_on": "Glycopeptide intermediate-resistant (GISA) S. aureus Mu-50 (ATCC 700695)", "assay": "MIC determination (EUCAST, Mueller-Hinton broth)", "assay_type": "cell-based", "details": "Staphylococcus aureus, ATCC700695", "experimental": "(§1) Further experiments were conducted using different strains of S. aureus, as clinically relevant Gram-positive bacterial strains: ATCC 25904, ATCC 6538, methilcillin-resistant S. aureus (MRSA) ATCC BAA-1556, Glycopeptide intermediate-resistant (GISA) S. aureus Mu-50 (ATCC 700695) in order to determine the Minimal Inhibitory Concentration (MIC) which is the minimal concentration required to prevent bacterial growth; the Minimal Bactericidal Concentration (MBC) which determines the lowest concentration at which an antimicrobial agent kill a particular microorganism and a Minimum Duration for killing 99.9% bacteria (MDK99.9) which is a tolerance metric according to the EUCAST.\n(§2) MIC determination: A single colony selected from the different strains of S. aureus is resuspended and cultured in the appropriate medium overnight (O/N) in aerobic conditions (37° C. with 220 rpm shaking), next day a 1:100 inoculum in Mueller-Hinton broth (MHB) was incubated in aerobic conditions for 3 hr (OD=0.08-0.1) and an inoculum of 1:300 dilution, corresponding to 3×10^5 CFU/ml, was incubated in presence or absence of different concentrations of Triafluocyl in 1% DMSO. After O/N growth the OD of each culture was measured at 600 nm in a spectrophotometer (OD600). The MIC represents the concentration at which there is no visible growth of bacteria, i.e. ΔOD at 600 nm equal to zero (blank is the medium alone). MIC for Triafluocyl against S. aureus ATCC 25904, ATCC 6538, methilcillin-resistant S. aureus (MRSA) ATCC BAA-1556, Glycopeptide intermediate-resistant (GISA), and S. aureus Mu-50 (ATCC 700695) were 20, 20, 15, and 20 μg/ml, respectively.\n(§3) The Minimal Inhibitory Concentration (MIC) and the Minimal Bactericidal Concentration (MBC) of Fluometacyl were determined on several gram-positive strains (Table 2) following EUCAST (European Committee on Antimicrobial susceptibility Testing) recommendations.\n(§4) For MIC determination a single colony was resuspended and cultured in the appropriate bacteria-specific medium (TSB: Tryptic Soy Broth for S. aureus atcc 25904 and S. epidermidis and BHI: brain-heart infusion medium for all the other strains) overnight (O/N) in aerobic conditions (37° C. with 220 rpm shaking), next day a 1:100 inoculum was incubated in Mueller-Hinton broth (MHB) in aerobic conditions for 3 hr (OD600=0.08-0.1). A further inoculum, 1:300 dilution of the MHB culture, corresponding to 3×10^5 CFU/ml, was grown in presence or absence of different concentrations of Fluometacyl, 1% DMSO in MHB for 20 hr."}, "[2]": {"tested_on": "S. aureus ATCC 25904", "assay": "MIC determination (EUCAST, Mueller-Hinton broth)", "assay_type": "cell-based", "details": "Staphylococcus aureus, ATCC25904", "experimental": "as §1, §2, §3, §4"}, "[3]": {"tested_on": "methilcillin-resistant S. aureus (MRSA) ATCC BAA-1556", "assay": "MIC determination (EUCAST, Mueller-Hinton broth)", "assay_type": "cell-based", "details": "Staphylococcus aureus", "experimental": "as §1, §2, §3, §4"}, "[4]": {"tested_on": "S. aureus (ATCC 25904)", "assay": "Growth kinetics in logarithmic phase (OD600 and viable count)", "assay_type": "cell-based, Staphylococcus aureus", "details": "20-100 min, FIG. 1", "experimental": "S. aureus (American Type Culture Collection, ATCC 25904) was grown overnight in Tryptic Soy Broth (TSB) medium, diluted 1:100 in fresh TSB, and incubated aerobically at 37° C. until bacteria growth reached a logarithmic phase (OD600=0.25-0.3).\nIncreasing concentrations of Triafluocyl (Cayman Chemical, Item No. 15425) or vehicle (DMSO) was then added in 5 ml of bacteria suspensions. Bacterial growth was measured after different time intervals (20-100 min) by spectrophotometry (OD600) and by counting the colony-forming units after plating appropriate culture dilutions on TS agar plates.\nIn FIG. 1 kinetics of S. aureus growth in the presence of an increasing concentrations (1 μg/ml to 20 μg/ml) of Triafluocyl were measured by turbidity measurement (upper graph), and viable count (lower graph). Data represent medians±range (n=3). *p<0.05; **p<0.01, ***p<0.001, Triafluocyl vs vehicle."}, "[5]": {"tested_on": "S. epidermidis mature biofilm", "assay": "Mature biofilm (24-hour) treatment, viable count", "assay_type": "cell-based, Staphylococcus epidermidis", "details": "50 μg/ml", "source_text": "In another experiment we let adhere 0.5×10^8 CFU/ml S. epidermidis cells for 4 hr and let the biofilm form for additional 24 hr in presence of 0.25% glucose, at this point we treated the biofilm with several concentrations of Triafluocyl for 24 hr in TSB with 0.25% glucose and determined the viable count (FIG. 7) as well as the percentage of live cells using the BacLight bacterial viability kit (Molecular Probes). For biofilm analysis, we first washed the biofilm to eliminate all planktonic bacteria and then the biofilm was detached mechanically using a scraper. To assure that the aggregates from the biofilm were completely dissociated, the suspension of cells was passed through a needle (0.5×16 mm) and a dilution was plated on TSA plates."}, "[6]": {"tested_on": "S. aureus MRSA (ATCC BAA-1556)", "assay": "Killing curve (CFU counting)", "assay_type": "cell-based, Staphylococcus aureus", "experimental": "S. aureus MRSA (ATCC BAA-1556) was grown overnight in brain heart infusion (BHI) medium, diluted 1:100 in fresh BHI, and incubated aerobically at 37° C. until bacteria growth reached a logarithmic phase (OD600=0.25-0.3).\nTriafluocyl (Cayman Chemical, Item No. 15425) (20 μg/ml), Vancomycin (Sigma, 4 μg/ml or 10 μg/ml), Minocycline (Sigma, 8 μg/ml) or a solvent (DMSO) were added to 5 ml of S. aureus MRSA suspensions.\nBacterial growth for S. aureus MRSA was measured after different time intervals by counting the colony-forming units after plating appropriate culture dilutions on BHI agar plates.\nS. aureus MRSA (ATCC BAA-1556) was grown overnight in BHI medium, then a 1:100 inoculum was diluted in fresh BHI and incubated aerobically at 37° C. until bacteria growth reached a logarithmic phase (OD600=0.25-0.3). The culture was split into two and challenged with 38 μM Fluometacyl (=18.2 μg/ml) or DMSO (Ctrl). Bacterial growth was measured after different time intervals by counting the colony-forming units after plating appropriate culture dilutions on BHI agar plates. (N=2)"}}}
{"compound": "CCCSc1nc(N[C@@H]2C[C@H]2c2ccc(F)c(F)c2)c2nnn([C@@H]3C[C@H](OCCO)[C@@H](O)[C@H]3O)c2n1", "note": "[Triafluocyl, (1S,2S,3R,5S)-3-[7-[(1R,2S)-2-(3,4-difluorophenyl)cyclopropylamino]-5-(propylthio)-3H-[1,2,3]-triazolo[4,5-d]pyrimidin-3-yl]-5-(2-hydroxyethoxy)-1,2-cyclopentanediol]", "values": [{"measurement": "MIC", "setting": "[1]; S. aureus Mu50 GISA", "result": 20, "unit": "µg/mL"}, {"measurement": "MIC", "setting": "[2]", "result": 20, "unit": "µg/mL"}, {"measurement": "MIC", "setting": "[3]", "result": 15, "unit": "µg/mL"}, {"measurement": "effect on bacterial growth (turbidity and viable count)", "setting": "[4]; 10 μg/ml", "result": "able to inhibit bacterial growth"}, {"measurement": "effect on bacterial growth (turbidity and viable count)", "setting": "[4]; 20 μg/ml", "result": "potent bactericidal effect"}, {"measurement": "number of viable cells in the biofilm", "setting": "[5]; 24 hr treatment of 24-hour biofilm, 0.25% glucose", "result": "1.5×10^5 CFU/ml"}, {"measurement": "reduction of viable cells in the biofilm", "setting": "[5]; 24 hr treatment, versus control", "result": "~3", "unit": "log"}, {"measurement": "effect on S. aureus MRSA viable count after the first two hours", "setting": "[6]; Triafluocyl 20 μg/ml, Vancomycin 10-fold MIC, Minocycline 8-fold MIC, FIG. 8A", "result": "decrease of S. aureus MRSA viable count"}]}
{"compound": "CCCSc1nc(N[C@@H]2C[C@H]2c2ccc(F)c(F)c2)c2nnn([C@@H]3C[C@H](O)[C@@H](O)[C@H]3O)c2n1", "note": "[Fluometacyl, (1S,2R,3S,4R)-4-[7-[[(1R,2S)-2-(3,4-Difluorophenyl)cyclopropyl]amino]-5-(propylthio)-3H-1,2,3-triazolo[4,5-d]pyrimidin-3-yl]-1,2,3-cyclopentanetriol]", "values": [{"measurement": "MIC", "setting": "[1]; S. aureus MU50 GISA", "result": "30 to 38", "unit": "µM"}, {"measurement": "MIC", "setting": "[2]", "result": "30 to 38", "unit": "µM"}, {"measurement": "MIC", "setting": "[3]", "result": "20 to 30", "unit": "µM"}, {"measurement": "bactericidal activity against S. aureus MRSA (time-kill)", "setting": "[6]; 38 μM (=18.2 μg/ml), FIG. 9", "result": "bactericidal activity"}]}
